How the values were obtained:
[1] = tested on: HEK-293; experiment: MTT cytotoxicity on normal HEK-293 cells; assay type: cell-based; settings: Homo sapiens, HEK293, normal cell line, 48 hours treatment, mean ± SD (n = 2)
Source text: We also investigated their in vitro cytotoxicity against a normal human embryonic kidney (HEK-293) cell line to determine their IC50.
(§1) The mouse triple-negative breast cancer cell line (4T1), a human luminal A breast cancer cell line (MCF-7), a human prostate cancer cell line (PC-3), and a normal human embryonic kidney cell line (HEK-293) were procured from the National Center for Cell Science (NCCS, Pune, India). Dulbecco's Modified Eagle Medium (DMEM) (Himedia Laboratories Pvt Ltd, Mumbai, India) was used to cultivate MCF-7, 4T1, PC-3, and HEK-293 cells. All the mentioned cell lines were cultured in Dulbecco's Modified Eagle Medium (DMEM) supplemented with 10% heat-inactivated fetal bovine serum (Himedia Laboratories Pvt Ltd, Mumbai, India) and 1% antibiotic (Pen strep: A001), Himedia Laboratories Pvt Ltd, Mumbai, India. Cells were grown in a humidified environment with 5% CO2 at 37 °C. The experiment was performed using the yellow dye MTT [3-(4,5-dimethylthiazol-2-yl)-2, 5-diphenyltetrazolium bromide].
(§2) The MTT assay protocol was used to determine the IC50 values of the final compounds against different types of cancer cell lines and their selectivity over normal human cell lines. Dilutions of various concentrations were made from the compounds' DMSO stock solutions in the appropriate media. With a control solution of less than 1% DMSO in the appropriate media, dilutions from 200 μM to 0.781 μM concentrations were prepared using the serial dilution method. Cells were subcultured in their respective complete media according to the ATCC protocol before being seeded on a sterile 96-well plate with around 100 μL per well and a cell density of about 1 × 10^4 cells per well and incubated overnight. The medium was aspirated the following day, and adherent cells were treated with the respective concentrations 200 μM to 0.781 μM. The cells were then cultured for 48 hours in presence of compounds in the growth medium. The medium was aspirated post-treatment, and 100 μL of a 5 mg mL^−1 MTT solution in phenol red-free media was added. This mixture was then incubated for around 3 hours to check for the production of formazan crystals. The MTT solution was withdrawn, and 150 μL of DMSO was added to the wells to dissolve the generated crystals. The absorbance was measured at 570 nm and 650 nm. The percent cell viability was calculated for the IC50 values using GraphPad Prism™ version 8.0.1, and the results were shown as a dose–response curve.

[2] = tested on: PC-3; experiment: MTT anti-proliferative assay on PC-3; assay type: cell-based, human
Procedure: All synthesized molecules were tested for their anticancer activity using the MTT assay protocol against the murine mammary carcinoma cell line (4T1), the human breast cancer (MCF-7), and the prostatic small cell carcinoma (PC-3). These compounds were then assessed for their IC50 determination at various concentrations. According to this finding, all synthesized compounds have the ability to inhibit the proliferation of a variety of cancer cell lines. […] It is more biased for MCF-7 cells over other cancer cells tested. Further, we contemplated conducting additional research to assess their anti-cancer effectiveness and mechanism (Fig. 3).
as §1, §2

[3] = tested on: MCF-7 cells; experiment: Cell cycle analysis (PI, flow cytometry); assay type: cell-based, human; settings: MCF-7, 48 hours, at IC50 concentration
Procedure: In addition to the apoptosis assay, the cell cycle progression of MCF-7 cells was also investigated using the compound 2g. The cell population at different cell cycle phases was assessed using flow cytometry. […] These findings highlight that the lead compound 2g specifically impacts cell cycle regulation in the early phase compared to control and standard compound-treated cells (Fig. 6).
Flow cytometry was used to study the cell cycle of compound 2g and BG-45 using the BDAria™ III, a BD biosciences equipment, and the data was processed using Flow Jo software. For this objective, 5.0 × 10^4 MCF-7 cells were seeded onto 12 well plates and incubated overnight. The media was aspirated the other day, and the treatment was continued for another 48 hours after adding the required concentrations of compound 2g and BG-45 to the aspirated media. Following the treatment, the sample wells were rinsed with ice-cold PBS, trypsinized, and collected as a cell pellet. After two ice-cold PBS washes, the pellet was fixed with a dropwise addition of 70% ice-cold ethanol, which was then gently vortexed to create a single-cell suspension. Overnight, the fixed cells were stored at −20 °C. The samples were then centrifuged, and the resulting cell pellet was resuspended in 500 μL of the staining solution made from 20% w/v RNase, 2% w/v PI, and roughly 0.1% v/v Triton X 100 solution in PBS. The dissolved samples were examined using flow cytometry in the BDAria™ III, BD Biosciences, after being incubated for 30 min at room temperature in the dark.

[4] = tested on: MCF-7 cells; experiment: Intracellular ROS generation (DCFH-DA); assay type: cell-based, human
Source text: This can result from the increased metabolic demands of rapidly dividing cancer cells and mitochondrial dysfunction. Elevated ROS levels can also damage DNA, contributing to genomic instability and the development of genetic mutations that drive cancer progression. Chemotherapy drugs, for example, can generate ROS as a byproduct of their mechanism of action, causing increase DNA damage and cell death in cancer cells. As a result, we investigated whether the compound 2g could cause ROS production within cancer cells.
The generation of reactive oxygen species in MCF-7 cells was investigated using the 2-7-dichlorodihydroflourescein diacetate (DCFH-DA) assay. The non-fluorescent DCFH-DA enters the cells, where cellular esterase cleaves off the acetyl groups to produce DCFH. ROS transform the molecule from DCFH to DCF, which produces green light. […] Following incubation, old medium was removed, and cells were treated with 10 μM DCFH-DA (S0033-Beyotime) in accordance with the recommended technique for 10 min at 37 °C in complete darkness. The intensity of fluorescence was then measured with a Laser Scanning Confocal Microscope (LSCM) DMI8 (Leica Microsystems, Germany) at 63× magnification at 485 nm and 535 nm for excitation and emission wavelengths. […] In the meantime, the increase in fluorescence intensity was determined in comparison to the control. Image J was used to calculate the relative fluorescence intensity (%). One-way ANOVA was used to determine significance, and the graph was created in GraphPad Prism™ version 8.0.1.

[5] = tested on: MCF-7 cells; experiment: Nuclear staining assay (DAPI and AO); assay type: cell-based, human; settings: MCF-7, IC50, 48 hours, compared to control and BG-45
Procedure: A nuclear staining assay was done using DAPI and AO as staining dyes to evaluate the phenomena of apoptosis in cancer cells under a laser scanning confocal microscope (LSCM). […] The fluorescence pattern in AO staining changed from green (normal cellular DNA) to orange (nicked cellular DNA).
To measure the degree of cancer cell disintegration, a nuclear staining experiment was performed in MCF-7 cells using the lead compound 2g and the reference compound BG-45. […] The 12-well plate was incubated for 48 hours after treatment. The cells were fixed with 4% paraformaldehyde and then stained with DAPI and acridine orange. The degree of nuclear staining was examined using a Laser Scanning Confocal Microscope (LSCM) DMI8 (Leica Microsystems, Germany) at 63× magnification. Image J was used to calculate the percentage apoptosis. One-way ANOVA was used to determine significance, and the graph was plotted in GraphPad Prism™ version 8.0.1.

SMILES: COc1ccc(-c2noc(-c3cccs3)c2C(F)(F)F)cc1OC [Compound 2g, 3-(3,4-dimethoxyphenyl)-5-(thiophen-2-yl)-4-(trifluoromethyl)isoxazole]
- IC50 [1]: 81.2 ± 0.17 µM
- IC50 ([2]; Homo sapiens, PC-3, MTT, 48 hours treatment, mean ± SD (n = 2)): 7.16 ± 0.18 µM
- selectivity for other cancer cell lines over HEK-293 ([2]; second value, fits PC-3 by ratio of Table 1 IC50): 11.3 fold
- cell population in G0/G1 phase [3]: 68.6%
- cell population in G2/M phase [3]: 31.5%
- cell population in S phase [3]: 1.11%
- Fluorescence intensity (DCFH-DA, ImageJ) ([4]; MCF-7, 48 h, IC50 dose): 31.63
- relative fluorescence intensity compared to the control ([4]; MCF-7, IC50 dose): considerable increase
- nuclear morphology by DAPI and AO staining [5]: notable variation in cell shape and morphology

Source: paper PMC11167338, “Exploring the impact of trifluoromethyl (–CF3) functional group on the anti-cancer activity of isoxazole-based molecules: design, synthesis, biological evaluation and molecular docking analysis” (RSC Advances, 2024)
